Like-named read-outs stand apart in the source and are kept apart here.
Columns and labels:
LPS = settings: Boons et al.; Shiozaki et al.; Peri et al.; cited from earlier work
[1] = tested on: LPS-induced TNFα production; assay: LPS antagonism assay: inhibition of LPS-induced TNFα production in THP-1 macrophages (ELISA); format: cell-based, human; settings: for LPS antagonistic activity: increasing concentrations, 10 ng/mL LPS 6 h; for inhibitory activity against LPS-induced TNFα production: concentration range of 0.1 nM to 10 μM
Description: Synthetic compounds in solid form were dissolved in tetrahydrofuran (THF), aliquotted in small volumes, vacuum-centrifuged for 1 h and stored at −80° C. as dry compounds. For cellular treatment, an aliquot was dissolved in an appropriate volume of dimethylsulfoxide (DMSO) to give a concentrated working stock solution. This stock solution was further diluted in DMSO to give the desired concentration range. The final concentration of DMSO in the cell treatments was always maintained at 0.6%. Concentrations of Fmoc-containing compounds were verified by absorbance using an extinction coefficient of 7800 M^−1 cm^−1 at 301 nm.
THP-1 cells were obtained from ATCC (Manassas, Va.) and maintained in RPMI-1640 culture medium (HyClone, Logan, Utah) containing 2 mM L-glutamine, 25 mM HEPES, 1.5 g/L sodium bicarbonate, 10% fetal bovine serum (FBS) (HyClone), 50 units/mL penicillin, 50 μg/mL streptomycin (HyClone), and 50 μM β-mercaptoethanol at 37° C. in 5% CO2. For cellular assay, THP-1 monocytes were centrifuged and resuspended in a fresh growth medium to a cell density of 5×10^5 cells/mL Cells were then seeded in a 48-well plate and differentiated into adherent macrophages by treatment with 10 ng/mL phorbol 12-myristate 13-acetate (PMA) (Sigma) for 24 h at 37° C. in 5% CO2. The non-adherent cells were removed and the adherent cells were washed and replenished with reduced FBS growth medium. For the two wells set aside for calculating percent differentiation, the cells were washed with PBS (Hyclone) prior to removal by 0.25% trypsin-EDTA. Cells in a separate well were removed with 0.25% trypsin and counted under the microscope using a hemocytometer to determine the number of adherent macrophages. For the remaining wells, the cells were pre-incubated with LPS antagonist compounds at different concentrations for 30 min followed by addition of 10 ng/mL ultrapure LPS from E. coli K12 (InvivoGen, San Diego, Calif.) for 6 h at 37° C. in 5% CO2. 0.6% DMSO was used as a control. The cell medium was collected and stored at −20° C. until analyzed by ELISA for secreted TNFα production.

TNFα production = assay: Agonist activity: secreted TNFα in THP-1 macrophages in the absence of LPS; format: cell-based, human; settings: for concentration range with agonist activity: FIG. 4 and FIG. 6; for agonist activity in the absence of LPS: tested in the absence of LPS
THP-1 macrophages = assay: Cell viability (toxicity) by XTT reduction assay in THP-1 macrophages; format: cell-based, human; settings: for toxicity (in words): THP-1 macrophages; for concentration at which toxic to the cells / cell viability compromised: XTT reduction assay
Description: Cell viability was monitored using an XTT [2,3-bis(2-methoxy-4-nitro-5-sulfophenyl)-2H-tetrazolium-5-carboxanilide] assay. Macrophage metabolic activity was assessed by probing mitochondrial reduction of XTT (Sigma) which is a measure of viability (or toxicity) in response to the synthetic antagonists. Following 6 h treatment with antagonist compounds and LPS, the macrophages were washed with PBS (Hyclone) and incubated with XTT (0.33 mg/mL) and phenazine methosulfate (PMS) (8.3 μM) (Acros, Morris Plains, N.J.) to a final concentration of 0.33 mg/mL and 8.3 μM respectively for 2 h at 37° C. in 5% CO2. The cellular toxicity was then assessed in a platereader using absorbance of reduced XTT at 467 nm.

[2] = human macrophage cells (THP-1), 10 ng/mL LPS for 6 h, read-out: TNFα inhibition (IC50)
[3] = concentration range showing agonist activity, human macrophage cells
[4] = concentration at which toxicity is seen, human macrophage cells, XTT reduction
[5] = human macrophage cells (THP-1), 10 ng/mL LPS for 6 h

| Structure (SMILES) | IC50 [1, 2] [nM] | Agonist activity (TNFα production; [3]) | toxicity (in words) (THP-1 macrophages; XTT reduction) | Toxicity (THP-1 macrophages; [4]) | LPS antagonistic activity ([1]; THP-1 macrophages) | inhibitory activity against LPS-induced TNFα production [1] | TNFα inhibition (IC50) [1, 5] | agonist activity in the absence of LPS (TNFα production) | also measured |
| --- | --- | --- | --- | --- | --- | --- | --- | --- | --- |
| CCCCCCCCCCCCCCO[C@H]1[C@@H](OC)O[C@H](C[N+](C)(C)C2CCCC2)[C@@H](O)[C@@H]1OCCCCCCCCCCCCCC [Compound 4, reference compound] | 6000 | 30 to 100 µM | toxic at high concentrations | >30 µM | – | – | – | – | antagonistic activity against LPS as reported in the literature (LPS): provide antagonistic activity; inhibition range ([1]; LPS-induced TNFα production): 3 to 10 µM; concentration range with agonist activity (TNFα production): > 10 µM |
| CO[C@H]1OC(COC(=O)CCC(=O)OC[C@H](NC(=O)OCC2c3ccccc3-c3ccccc32)C(=O)OC(C)(C)C)[C@@H](O)[C@H](OCc2ccccc2)C1OCc1ccccc1 (stereo partly drawn) [Compound 10, Methyl 2,3-di-O-benzyl-6-O-(4-((S)-2-(9-fluorenylmethoxyearbonyl)amino-3-(tert-butoxy)-3-oxopropyl)oxy-4-oxobutanoyl)-α-D-glycopyranoside] | – | None observed | – | None observed | do not display LPS antagonistic activity | no inhibitory activity | None observed | no agonist activity | – |
| CO[C@H]1OC(COC(=O)CCC(=O)OC[C@H](NC(=O)OCC2c3ccccc3-c3ccccc32)C(=O)O)[C@@H](O)[C@H](OCc2ccccc2)C1OCc1ccccc1 (stereo partly drawn) [Compound 11, Methyl 2,3-di-O-benzyl-6-O-(4-((S)-2-(9-fluorenylmethoxyearbonyl)amino-2-carboxyethyl)oxy-4-oxobutanoyl)-α-D-glycopyranoside] | 46000 | None observed | cell toxicity | >10 µM | displays LPS antagonistic activity | – | – | – | concentrations at which LPS-induced TNFα production is significantly inhibited ([1]; THP-1 macrophages): greater than 10 μM; concentration at which toxic to the cells / cell viability compromised (THP-1 macrophages): 30 to 100 µM |
| CO[C@H]1O[C@H](COC(=O)CCC(=O)OC[C@H](N)C(=O)OC(C)(C)C)[C@@H](O)[C@H](OCc2ccccc2)[C@H]1OCc1ccccc1 [Compound 12, Methyl 2,3-di-O-benzyl-6-O-(4-((S)-2-amino-3-(tert-butoxy)-3-oxopropyl)oxy-4-oxobutanoyl)-α-D-glycopyranoside] | – | None observed | – | None observed | do not display LPS antagonistic activity | no inhibitory activity | None observed | no agonist activity | – |
| CO[C@H]1O[C@H](COC(=O)CCC(=O)OC[C@H](N)C(=O)O)[C@@H](O)[C@H](OCc2ccccc2)[C@H]1OCc1ccccc1 [Compound 13, Methyl 2,3-di-O-benzyl-6-O-(4-((S)-2-amino-2-carboxyethyl)oxy-4-oxobutanoyl)-α-D-glycopyranoside] | – | None observed | – | None observed | do not display LPS antagonistic activity | no inhibitory activity | None observed | no agonist activity | – |
| CCCCCCCCCCCCCC(=O)O[C@H]1[C@@H](OC)O[C@H](COC(=O)CCC(=O)OC[C@H](NC(=O)OCC2c3ccccc3-c3ccccc32)C(=O)O)[C@@H](O)[C@@H]1OC(=O)CCCCCCCCCCCCC [Compound 19, Methyl 6-O-(4-((S)-2-(9-fluorenylmethoxyearbonyl)amino-2-carboxyethyl)oxy-4-oxobutanoyl)-2,3-di-O-tetradecanoyl-α-D-glucopyranoside] | 3000 | 10 to 30 µM | – | >10 µM | highly potent LPS antagonistic activity | – | – | – | LPS response blocked ([1]; 5 μM compound): 80%; concentration at which inhibition of LPS-induced TNFα begins ([1]; THP-1 macrophages): ≥ 550 nM; concentration range with agonist activity (TNFα production): 10 to 30 µM; concentration at which toxic to the cells / cell viability compromised (THP-1 macrophages): ≥ 10 µM; Toxicity (THP-1 macrophages; at 5 μM compound): no observable toxicity |
| CCCCCCCCCCCCCCO[C@H]1[C@@H](OC)O[C@H](COC(=O)CCC(=O)OC[C@H](NC(=O)OCC2c3ccccc3-c3ccccc32)C(=O)O)[C@@H](O)[C@@H]1OCCCCCCCCCCCCCC [Compound 24, Methyl 6-O-(4-((S)-2-(9-fluorenylmethoxycarbonyl)amino-2-carboxyethyl)oxy-4-oxobutanoyl)-2,3-di-O-tetradecanyl-α-D-glucopyranoside] | 500 | None observed | without toxicity | None observed | significant LPS antagonistic activity | – | – | – | inhibition at 1 µM ([1]; Homo sapiens, THP-1, 1 μM compound): 70%; inhibition at 40 µM ([1]; Homo sapiens, THP-1, 40 μM compound, read-out: overall inhibition of LPS-induced TNFα production): 90%; IC50 ([1]; Macrophage, LPS-induced TNFα production in human macrophages, FIG. 5, read-out: IC50, curve fitting of the inhibition data): 470 nM; Agonist activity (TNFα production; tested 0.2 to 40 μM range): no toxicity or agonist activity; Toxicity (THP-1 macrophages; tested 0.2 to 40 μM range): no toxicity |

Source: patent US9120838B2, “Saccharide conjugates” (Curators of the University of Missouri, priority 2011, dated 2015)
